From PubChem BioAssay AID248 (DTP/NCI, 2004) come the findings set out here.

The structures appear in SMILES notation. Inconclusive results and toxic doses are left out.

This experiment deals with L1210 leukemia ip in BDF1 mice, survival T/C. The experiment is described as follows: NCI In Vivo Anticancer Drug Screen. Data for tumor model L1210 Leukemia (intraperitoneal) in B6D2F1 (BDF1) mice. As to conditions: endpoint: mean survival time, higher = longer survival. The essentials:
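Read-out is survival time, reported as the treated-group measurement over the vehicle-control measurement.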

Setting [1] is: dose: 100.0 mg/kg/injection, schedule: Q01DX009 (ip), vehicle: saline with Tween-80.
Setting [2] is: dose: 400.0 mg/kg/injection, schedule: Q04DX002 (ip), vehicle: saline with Tween-80.
Where [3] appears, read: dose: 100.0 mg/kg/injection, schedule: Q01DX001 (ip), vehicle: saline.
[4] abbreviates: dose: 200.0 mg/kg/injection, schedule: Q01DX001 (ip), vehicle: saline.
Where [5] appears, read: dose: 400.0 mg/kg/injection, schedule: Q01DX001 (ip), vehicle: saline.
Setting [6] is: dose: 100.0 mg/kg/injection, schedule: Q04DX003 (ip), vehicle: saline.
Setting [7] is: dose: 200.0 mg/kg/injection, schedule: Q04DX003 (ip), vehicle: saline.
[8] abbreviates: dose: 400.0 mg/kg/injection, schedule: Q04DX003 (ip), vehicle: saline.
Where [9] appears, read: dose: 100.0 mg/kg/injection, schedule: Q04DX003 (ip), vehicle: saline with Tween-80.

`O=C1Oc2ccccc2C1c1ccccc1` (stereo not drawn): the T/C (dose: 87.5 mg/kg/injection, schedule: Q01DX009 (ip), vehicle: other) is 103 % of control; the T/C (dose: 175.0 mg/kg/injection, schedule: Q01DX009 (ip), vehicle: other) is 108 % of control; the T/C (dose: 350.0 mg/kg/injection, schedule: Q01DX009 (ip), vehicle: other) is 106 % of control.
With `O=C(O)/C(Br)=C(\Br)c1ccccc1`, the T/C is 101 % of control under setting [1]; 92 % of control (dose: 200.0 mg/kg/injection, schedule: Q01DX009 (ip), vehicle: saline with Tween-80); 95 % of control (dose: 400.0 mg/kg/injection, schedule: Q01DX009 (ip), vehicle: saline with Tween-80).
As for `CC(=O)CCC(=O)CCC(C)=O`, the T/C runs as follows: (dose: 100.0 mg/kg/injection, schedule: Q04DX002 (ip), vehicle: saline) 93 % of control; (dose: 200.0 mg/kg/injection, schedule: Q04DX002 (ip), vehicle: saline) 101 % of control; (dose: 400.0 mg/kg/injection, schedule: Q04DX002 (ip), vehicle: saline) 101 % of control.
As to `Cc1cccc(/C2=C/CCCCCC2)c1`, the T/C reads like this: (dose: 37.5 mg/kg/injection, schedule: Q01DX009 (ip), vehicle: saline) 100 % of control; (dose: 75.0 mg/kg/injection, schedule: Q01DX001 (ip), vehicle: acetone) 89 % of control; (dose: 75.0 mg/kg/injection, schedule: Q01DX009 (ip), vehicle: saline) 103 % of control; (dose: 150.0 mg/kg/injection, schedule: Q01DX001 (ip), vehicle: acetone) 88 % of control; (dose: 150.0 mg/kg/injection, schedule: Q01DX009 (ip), vehicle: saline) 115 % of control; (dose: 225.0 mg/kg/injection, schedule: Q01DX009 (ip), vehicle: acetone) 92 % of control. Besides, the T/C (dose: 300.0 mg/kg/injection, schedule: Q01DX001 (ip), vehicle: acetone) is 93 % of control.
Take `NC(N)=NCC(CCN1CCCCC1)c1cccc2ccccc12` (stereo not drawn): the T/C was 105 % of control (dose: 5.0 mg/kg/injection, schedule: Q01DX009 (ip), vehicle: saline); 100 % of control (dose: 10.0 mg/kg/injection, schedule: Q01DX009 (ip), vehicle: saline); 93 % of control (dose: 12.5 mg/kg/injection, schedule: Q04DX002 (ip), vehicle: saline); 106 % of control (dose: 20.0 mg/kg/injection, schedule: Q01DX009 (ip), vehicle: saline); 93 % of control (dose: 25.0 mg/kg/injection, schedule: Q04DX002 (ip), vehicle: saline).
As to `c1ccc([C](c2ccccc2)(c2ccccc2)[Sn]([c]2ccccc2)([c]2ccccc2)[c]2ccccc2)cc1`, the T/C reads like this: (dose: 25.6 mg/kg/injection, schedule: Q04DX002 (ip), vehicle: saline with Tween-80) 121 % of control; (dose: 64.0 mg/kg/injection, schedule: Q04DX002 (ip), vehicle: saline with Tween-80) 86 % of control; (dose: 160.0 mg/kg/injection, schedule: Q04DX002 (ip), vehicle: saline with Tween-80) 86 % of control; under setting [2], 86 % of control.
Regarding `S=C=NCc1cccc(CN=C=S)c1`, the T/C (dose: 6.25 mg/kg/injection, schedule: Q01DX009 (ip), vehicle: saline with Tween-80) is 103 % of control.
As for `CCNC(=O)NCC`, the T/C by setting is: (dose: 50.0 mg/kg/injection, schedule: Q01DX001 (ip), vehicle: saline) 109 % of control; under setting [3], 101 % of control; under setting [4], 103 % of control; under setting [5], 97 % of control.
In the case of `CC[C@H](c1ccc(O)cc1)[C@@H](CC)c1ccc(O)cc1`, the T/C by setting is: (dose: 62.5 mg/kg/injection, schedule: Q01DX010 (sc), vehicle: steriod suspending solution) 104 % of control; (dose: 125.0 mg/kg/injection, schedule: Q01DX010 (sc), vehicle: steriod suspending solution) 95 % of control; (dose: 250.0 mg/kg/injection, schedule: Q01DX010 (sc), vehicle: steriod suspending solution) 104 % of control.
For `N=c1c2ccccc2nnn1-c1ccccc1[N+](=O)[O-]`, the T/C is, setting by setting: (dose: 75.0 mg/kg/injection, schedule: Q01DX001 (ip), vehicle: other) 92 % of control; (dose: 150.0 mg/kg/injection, schedule: Q01DX001 (ip), vehicle: other) 99 % of control; (dose: 300.0 mg/kg/injection, schedule: Q01DX001 (ip), vehicle: other) 92 % of control.
On to `COc1cccc(C=Nc2ccc(Br)cc2)c1O.COc1cccc(C=Nc2ccc(Br)cc2)c1O.[Co]`, for which the T/C is, setting by setting: under setting [6], 98 % of control; under setting [7], 98 % of control; under setting [8], 98 % of control.
For the compound `Clc1nc2cc(Cl)c(Cl)cc2[nH]1`, the T/C (dose: 100.0 mg/kg/injection, schedule: Q04DX003 (ip), vehicle: acetone) was 95 % of control and the T/C (dose: 200.0 mg/kg/injection, schedule: Q04DX003 (ip), vehicle: acetone) was 95 % of control.
On to `CC1(C)N=C(N)N=C(N)N1c1ccc(CNC(=O)Nc2cccc(S(=O)(=O)F)c2)cc1`, for which the T/C was 116 % of control (dose: 6.25 mg/kg/injection, schedule: Q01DX009 (ip), vehicle: saline); 119 % of control (dose: 12.5 mg/kg/injection, schedule: Q01DX009 (ip), vehicle: saline); 154 % of control (dose: 50.0 mg/kg/injection, schedule: Q01DX009 (ip), vehicle: saline); 113 % of control (dose: 88.0 mg/kg/injection, schedule: Q04DX003 (ip), vehicle: saline).
With `CCCC[P+](CO)(CCCC)CCCC`, the T/C (dose: 30.0 mg/kg/injection, schedule: Q01DX001 (ip), vehicle: saline) was 102 % of control.
In the case of `O=C(O)c1cc(=O)n(CCCn2c(=O)cc(C(=O)O)[nH]c2=O)c(=O)[nH]1`, the T/C by setting is: (dose: 100.0 mg/kg/injection, schedule: Q04DX002 (ip), vehicle: saline with Tween-80) 93 % of control; (dose: 200.0 mg/kg/injection, schedule: Q04DX002 (ip), vehicle: saline with Tween-80) 101 % of control; under setting [2], 89 % of control.
As for `CC(C)C(=O)C(C)(C)C`, the T/C was 102 % of control under setting [3], 98 % of control under setting [4] and 107 % of control under setting [5].
Turning to `O=[N+]([O-])C1C=CCS1(=O)=O` (stereo not drawn), the T/C runs as follows: under setting [6], 95 % of control; under setting [7], 96 % of control; under setting [8], 86 % of control.
Consider `CN(CCc1cnc2nc(N)[nH]c(=O)c2n1)c1ccc(C(=O)O)cc1`, for which the T/C was 90 % of control (dose: 75.0 mg/kg/injection, schedule: Q01DX001 (ip), vehicle: saline); 95 % of control (dose: 150.0 mg/kg/injection, schedule: Q01DX001 (ip), vehicle: saline); 94 % of control (dose: 300.0 mg/kg/injection, schedule: Q01DX001 (ip), vehicle: saline).
Take `CC12CCCCC1(OC(=O)c1ccc([N+](=O)[O-])cc1)CCCC2` (stereo not drawn): the T/C reads like this: (dose: 75.0 mg/kg/injection, schedule: Q04DX002 (ip), vehicle: saline with Tween-80) 100 % of control; (dose: 150.0 mg/kg/injection, schedule: Q04DX002 (ip), vehicle: saline with Tween-80) 104 % of control; (dose: 300.0 mg/kg/injection, schedule: Q04DX002 (ip), vehicle: saline with Tween-80) 88 % of control.
Turning to `COc1ccc(C(c2ccc(Cl)cc2)N2CCNCC2)cc1` (stereo not drawn), the T/C was 98 % of control (dose: 25.0 mg/kg/injection, schedule: Q01DX009 (ip), vehicle: saline with Tween-80); 96 % of control (dose: 50.0 mg/kg/injection, schedule: Q01DX009 (ip), vehicle: saline with Tween-80); 96 % of control under setting [1]; 102 % of control under setting [9].
As for `NC(CSS(=O)(=O)O)=NCCCOCc1ccccc1`, the T/C is, setting by setting: (dose: 12.5 mg/kg/injection, schedule: Q04DX002 (ip), vehicle: Klucel (hydroxypropylcellulose) (HPC)) 103 % of control; (dose: 25.0 mg/kg/injection, schedule: Q04DX002 (ip), vehicle: Klucel (hydroxypropylcellulose) (HPC)) 93 % of control.
As for `Cc1cccc(Cl)c1OC(=O)Nc1ccccc1`, the T/C runs as follows: (dose: 50.0 mg/kg/injection, schedule: Q04DX002 (ip), vehicle: Klucel (hydroxypropylcellulose) (HPC)) 98 % of control; (dose: 100.0 mg/kg/injection, schedule: Q04DX002 (ip), vehicle: Klucel (hydroxypropylcellulose) (HPC)) 98 % of control; (dose: 200.0 mg/kg/injection, schedule: Q04DX002 (ip), vehicle: Klucel (hydroxypropylcellulose) (HPC)) 102 % of control.
Take `C=CCNC(=O)CS(=O)(=O)c1ccc(C)cc1`: the T/C is 94 % of control under setting [9]; 100 % of control (dose: 200.0 mg/kg/injection, schedule: Q04DX003 (ip), vehicle: saline with Tween-80); 96 % of control (dose: 400.0 mg/kg/injection, schedule: Q04DX003 (ip), vehicle: saline with Tween-80).
